Test results from patent publication US5877187A, “Benzimidazole derivatives with antihistaminic activity” (Fabrica Espanola de Productos Quimicos y Farmaceuticos S.A. …, priority 1996, dated 1999).

What was measured:
[1] = biological target: T1, guinea pig ileum H1 -receptor histamine (Cavia porcellus, UniProt P31389); experiment: Blocking of histamine-induced contractions in the isolated guinea pig ileum; type: cell-based; settings: calculated, mixed antagonist
T1 construct: isolated guinea pig ileum; from tissue; host or cells: isolated guinea pig ileum
T1 sequence (P31389 whole entry): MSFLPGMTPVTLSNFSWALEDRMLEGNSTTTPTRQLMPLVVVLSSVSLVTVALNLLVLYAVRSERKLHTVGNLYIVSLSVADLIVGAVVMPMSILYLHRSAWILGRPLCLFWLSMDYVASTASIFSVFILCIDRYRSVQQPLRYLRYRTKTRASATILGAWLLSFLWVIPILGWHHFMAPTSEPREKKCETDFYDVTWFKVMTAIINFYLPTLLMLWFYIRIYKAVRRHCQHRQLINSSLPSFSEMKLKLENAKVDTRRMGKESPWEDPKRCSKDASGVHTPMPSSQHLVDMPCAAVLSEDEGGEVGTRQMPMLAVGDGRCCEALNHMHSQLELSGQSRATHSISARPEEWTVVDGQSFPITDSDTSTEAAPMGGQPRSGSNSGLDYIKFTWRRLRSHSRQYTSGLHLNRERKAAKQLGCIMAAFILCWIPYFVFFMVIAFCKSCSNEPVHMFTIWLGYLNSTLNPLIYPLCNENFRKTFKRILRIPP
Description: (§1) Compounds of formula I have useful pharmacological properties. In particular, they are potent H1 antihistamines.

[2] = test system: histamine-induced cutaneous capillary permeability; experiment: Inhibition of the increment of histamine-induced cutaneous capillary permeability in rats; type: in vivo, rat
Description: as §1

[3] = test system: acetylcholine-induced contractions in isolated guinea pig ileum; experiment: Antagonism of acetylcholine-induced contractions in isolated guinea pig ileum; type: cell-based; set-up: dose or concentration left out as unconfirmed
[4] = test system: spontaneous motor activity; experiment: Spontaneous motor activity of the rat; type: in vivo; settings: 100 mg/kg p.o.
[5] = test system: ECG / QTc interval; experiment: ECG and QTc interval in rats after i.v. administration; type: in vivo, rat; settings: 20 mg/kg i.v.

pD2' [1]: 6.50
Kb ([1]; read-out: pA2 (converted)): 7.94 to 10.5 nM
effect on spontaneous motor activity [4]: does not modify
Compound: CCOCCn1c(C2CCN(CCc3ccc(C(C)(C)C(=O)O)cc3)CC2)nc2ccccc21 [Ib (R1 =Et), 2-[4-(2-(4-(1-(2-ethoxyethyl)benzimidazole-2-yl)piperidine-1-yl)ethyl)phenyl]-2-methylpropanoic Acid]
duration of significant activity in excess of 50% ([2]; 5 mg/kg p.o.): at least 6 hours
inhibition at 5 mg/kg ([2]; Rattus norvegicus, po, 5 mg/kg p.o., maintained for at least 6 hours, read-out: activity (inhibition of the increase in capillary permeability)): > 50%
ED50 ([2]; Rattus norvegicus, po, read-out: DE50, inhibition of the increase in capillary permeability): ~2 mg/kg
antagonism of acetylcholine-induced contractions [3]: not able to antagonize significantly
increase of the QTc interval [5]: nor does it increase the QTc interval
morphological ECG disturbance [5]: induces no morphological ECG disturbance
